What was measured:
[1] = tested on: pentagastrin-stimulated gastric acid secretion; test: Test on inhibition of pentagastrin-stimulated gastric acid secretion; assay type: in vivo, rat; conditions: SD rats, 0.03 mg/kg intraduodenal, acid output 1 to 4 hours after administration, pentagastrin 15 μg/kg/hr
Experimental: Test on Inhibition of Pentagastrin-stimulated Gastric Acid Secretion
Male Sprague-Dawley (SD)-strain rats were used. Under anesthesia with ether, each rat was subjected to the operation for pylorus ligation and placement of a duodenal catheter and gastric fistula. After completion of the operation, each rat was held in a Bollman-type cage and constantly infused with 15 μg/kg/hr of pentagastrin through the tail vein. Test compounds were suspended in a 0.5% sodium carboxymethylcellulose solution (which will hereinafter be called “vehicle”). Administration of the vehicle or test compound was carried out through the intraduodenal catheter 1 hour after the beginning of pentagastrin infusion. Acidity of the collected gastric juice was measured by an automatic titrator. Acid output was determined by multiplying the volume of gastric juice by its acidity. Inhibition of acid output for 3 hours from 1 to 4 hours after administration of the test compound was calculated by the following equation.
Inhibition (%)=(mean acid output of vehicle administered group−mean acid output of compound group)/mean acid output of vehicle administered group×100

CCK-B receptor = target: T1, CCK-B receptor (Cavia porcellus, UniProt H0VZC5); test: Binding test to CCK-B receptor ([3H]CCK-8, cerebral cortex membranes); design: species or system guinea pig; conditions: inhibition of specific binding of 1.0 nM [3H]CCK-8, 25° C., 2 hours
T1 sequence (H0VZC5 1-426): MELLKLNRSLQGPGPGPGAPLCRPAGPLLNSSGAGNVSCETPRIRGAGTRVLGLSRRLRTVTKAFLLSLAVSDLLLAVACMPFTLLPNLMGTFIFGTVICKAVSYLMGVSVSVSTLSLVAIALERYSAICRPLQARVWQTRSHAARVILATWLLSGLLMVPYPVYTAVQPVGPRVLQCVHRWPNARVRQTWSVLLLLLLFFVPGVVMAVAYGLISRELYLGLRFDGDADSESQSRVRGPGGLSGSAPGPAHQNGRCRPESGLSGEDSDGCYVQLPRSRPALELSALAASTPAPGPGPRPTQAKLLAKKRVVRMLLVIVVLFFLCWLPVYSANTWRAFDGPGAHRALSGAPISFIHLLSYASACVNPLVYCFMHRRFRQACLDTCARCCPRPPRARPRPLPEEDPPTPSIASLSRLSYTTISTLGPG
Experimental: Binding Test to CCK-B Receptor
The cerebral cortex excised from a Hartley-strain male guinea pig was homogenized in 50 times the amount of a 50 mM Tris-HCl buffer (pH 7.4), followed by centrifugal separation at 50000×g for 10 minutes. Addition of the same amount of the same buffer to the precipitate thus obtained and centrifugation were repeated 2 times. The final precipitate was homogenized in a 10 mM HEPES buffer (pH 6.5) containing 5 mM magnesium chloride, 1 mM EGTA, 0.25 mg/ml bacitracin and 130 mM sodium chloride, and used as the receptor preparation.
Binding assay was conducted by adding, to 50 μl of a test compound solution, 50 μl of a [^3H]CCK-8 solution having the final concentration of 1.0 nM and 900 μl of the receptor preparation (protein content: 800 μg/tube) and reacting them at 25° C. for 2 hours. After completion of the reaction, the mixture was suction filtrated through a Whatman GF/B filter treated in advance with 0.1% BSA. Rightly after filtration, the filter was washed four times, each with 3 ml of ice-cold 50 mM Tris-HCl buffer (pH 7.4). After a scintillator was added to the filter and the resulting filter was then allowed to stand for a day, radioactivity on the filter was measured by a liquid scintillation counter. The binding of [^3H]CCK-8 in the presence of 1 μM CCK-8 when the test compound was not added was defined as non-specific binding. […]

[2] = Test on hygroscopicity under high humidity conditions (2), 0.1 g sample; assay type: physicochemical
Experimental: (§1) Test 3 (Test on Hygroscopicity under High Humidity Conditions)
(§2) (2) A saturated aqueous solution of potassium sulfate was charged in a desiccator and was allowed to stand for at least one day in a temperature controlled room set at 25° C. The sample (0.1 g) was stored and weighed. Hygroscopicity was measured by its weight change. The relative humidity at that time was 97.3% RH.

[3] = Test on hygroscopicity under high humidity conditions (1), 0.5 g sample; assay type: physicochemical
Experimental: as §1
as §2, with “(1)” for “(2)”, “(0.5” for “(0.1”

Q: For `CC(C)(C)C(=O)CN1C(=O)[C@H](NC(=O)Nc2cccc(C(C)(C)C(=O)O)c2)CN(C2CCCCC2)c2ccccc21` [Compound of Example 4 in the free form, (R)-(−)-2-[3-[3-(1-tert-butylcarbonylmethyl-2-oxo-5-cyclohexyl-1,3,4,5-tetrahydro-2H-1,5-benzodiazepin-3-yl)ureido]phenyl]-2-methylpropionic acid, reference compound], which “Inhibition of acid output (%)” value ([1]; Table 2) is on record?
A: 13.7%

Q: For `CC(C)(C)C(=O)CN1C(=O)[C@H](NC(=O)Nc2cccc(C(=O)O)c2)CN(C2CCCCC2)c2ccccc21` [Compound of Example 1 in the free form, (R)-(−)-3-[3-(1-tert-butylcarbonylmethyl-2-oxo-5-cyclohexyl-1,3,4,5-tetrahydro-2H-1,5-benzodiazepin-3-yl)ureido]benzoic acid, reference compound], which “Inhibition of acid output (%)” value [1] is on record?
A: 4.8%

Q: What about the IC50 (CCK-B receptor) of the same compound?
A: 1.45 nM

Q: Which results are given for “calcium (R)-(−)-2-[3-[3-(1-tert-butylcarbonylmethyl-2-oxo-5-cyclohexyl-1,3,4,5-tetrahydro-2H-1,5-benzodiazepin-3-yl)ureido]phenyl]-2-methylpropionate [Compound of Example 4 (Ca salt)]”?
A: Inhibition of acid output (%) ([1]; Table 2): 46.1%; Hygroscopicity compared with the corresponding Na salt ([2]; 25° C., 97.3% RH, versus Compound of Example 5 in WO99/64403): lower hygroscopicity; Weight change (%) when stored at 25° C. and 97.3% RH ([2]; storage days 0): 0%; Weight change (%) when stored at 25° C. and 97.3% RH ([2]; storage days 2): 8.15%; Weight change (%) when stored at 25° C. and 97.3% RH ([2]; storage days 4): 7.87%; Weight change (%) when stored at 25° C. and 97.3% RH ([2]; storage days 7): 8.38%; Weight change (%) when stored at 25° C. and 97.3% RH ([2]; storage days 9): 9.07%; Weight change (%) when stored at 25° C. and 97.3% RH ([2]; storage days 11): 8.14%; Weight change (%) when stored at 25° C. and 97.3% RH ([2]; storage days 18): 8.51%; Weight change (%) when stored at 25° C. and 97.3% RH ([2]; storage days 30): 8.23%

Q: Which “Hygroscopicity compared with the corresponding Na salt” value ([3]; 25° C., 97.3% RH, versus Na salt of Compound of Example 143 in WO98/25911) does the source give for `CC(C)(C)C(=O)CN1C(=O)[C@H](NC(=O)Nc2cccc(C(=O)[O-])c2)CN(C2CCCCC2)c2ccccc21.CC(C)(C)C(=O)CN1C(=O)[C@H](NC(=O)Nc2cccc(C(=O)[O-])c2)CN(C2CCCCC2)c2ccccc21.[Ca+2]` [Compound of Example 1 (Ca salt), calcium (R)-(−)-3-[3-(1-tert-butylcarbonylmethyl-2-oxo-5-cyclohexyl-1,3,4,5-tetrahydro-2H-1,5-benzodiazepin-3-yl)ureido]benzoate] here?
A: lower hygroscopicity

Q: And the “Weight change (%) when stored at 25° C. and 97.3% RH” value (“Weight change (%) when stored” for short) ([3]; storage time 0 day)?
A: 0%

Q: And the “Weight change (%) when stored” value ([3]; storage time 1 day)?
A: 4.61%

Q: What about the “Weight change (%) when stored” value ([3]; storage time 2 days) of the same compound?
A: 5.00%

Q: What about the “Weight change (%) when stored” value ([3]; storage time 3 days) of the same compound?
A: 4.94%

Q: What about the “Weight change (%) when stored” value ([3]; storage time 4 days) of the same compound?
A: 4.97%

Q: What about the “Weight change (%) when stored” value ([3]; storage time 10 days) of the same compound?
A: 5.43%

Q: What about the “Weight change (%) when stored” value ([3]; storage time 14 days) of the same compound?
A: 5.41%

Q: And the “Inhibition of acid output (%)” value [1]?
A: 42.3%

Q: What about the IC50 (CCK-B receptor) of the same compound?
A: 1.68 nM

Source: US6747022B2, “Calcium salts of 1,5-benzodiazepine derivatives, process for producing the salts and drugs containing the same” (Zeria Pharmaceutical Co., Ltd., priority 1999, dated 2004)
